{"source": "patent US12285483B2", "about": "(priority 2020, dated 2025)", "origin": "cited, not measured here", "conditions": "pure solanesol, room temperature", "data": [{"substance": "solanesol", "values": [{"measurement": "solubility in water", "value": "insoluble in water"}]}]}
